Data reported in ChEMBL document CHEMBL3885861, “Open TG-GATES”.

Species on record: Rattus norvegicus
Experiment: Open TG-GATES - Regimen: Single
Assay type: toxicity, organism-based, Sprague-Dawley
Parameters: regimen Single, gender Male, age 6 weeks
Conditions: in vivo, ip, 24 h, route intraperitoneal injection; for Bas / Eos / Hb / Ht / Lym / MCH / MCHC / MCV / Mono / Neu / Plat / RBC / Ret / WBC: tissue Blood; for KIDNEY_L / KIDNEY_R / KIDNEY_TOTAL: tissue Kidney; for LIVER: tissue Liver; for A/G / ALP / ALT / AST / BUN / CRE / Ca / Cl / DBIL / GLC / IP / K / LDH / Na / PL / RALB / TBIL / TC / TG / TP / gamma-GTP: tissue Plasma

For CN(N=O)C(N)=O [N-METHYL-N-NITROSUREA], the TERMINAL_BW (0 mg/kg, dose level Control) was 240.3 g, the Bas (0 mg/kg, dose level Control) was 0% and the Eos (0 mg/kg, dose level Control) was 0.8%. The Hb (0 mg/kg, dose level Control) was 12.5 g/dL, the Ht (0 mg/kg, dose level Control) was 38.8% and the Lym (0 mg/kg, dose level Control) was 78.8%. The MCH (0 mg/kg, dose level Control) was 19.9 pg, the MCHC (0 mg/kg, dose level Control) was 32.4% and the MCV (0 mg/kg, dose level Control) was 61.6 fL. It also gave a Mono (0 mg/kg, dose level Control) of 2.4%, a Neu (0 mg/kg, dose level Control) of 17.6% and a Plat (0 mg/kg, dose level Control) of 125.4 x10_4/uL. For the same compound, the RBC (0 mg/kg, dose level Control) was 629.8 x10_4/ul, the Ret (0 mg/kg, dose level Control) was 8.1% and the WBC (0 mg/kg, dose level Control) was 104.4 x10_2/uL. For the same compound, the KIDNEY_L (0 mg/kg, dose level Control) was 1 g, the KIDNEY_R (0 mg/kg, dose level Control) was 1 g and the KIDNEY_TOTAL (0 mg/kg, dose level Control) was 2 g. It also gave an LIVER (0 mg/kg, dose level Control) of 11.1 g, an A/G (0 mg/kg, dose level Control) of 1 and an ALP (0 mg/kg, dose level Control) of 1557.2 IU/L. It also gave an ALT (0 mg/kg, dose level Control) of 41.2 IU/L, an AST (0 mg/kg, dose level Control) of 72.8 IU/L and a BUN (0 mg/kg, dose level Control) of 17.5 mg/dL. It also gave a CRE (0 mg/kg, dose level Control) of 0.2 mg/dL, a Ca (0 mg/kg, dose level Control) of 10.7 mg/dL and a Cl (0 mg/kg, dose level Control) of 102.9 meq/L. The DBIL (0 mg/kg, dose level Control) was 0 mg/dL, the GLC (0 mg/kg, dose level Control) was 198 mg/dL and the IP (0 mg/kg, dose level Control) was 7.1 mg/dL. The K (0 mg/kg, dose level Control) was 4.2 meq/L, the LDH (0 mg/kg, dose level Control) was 141.2 IU/L and the Na (0 mg/kg, dose level Control) was 141.4 meq/L. It also gave a PL (0 mg/kg, dose level Control) of 160 mg/dL, an RALB (0 mg/kg, dose level Control) of 2.7 g/dL and a TBIL (0 mg/kg, dose level Control) of 0.004 mg/dL. It also gave a TC (0 mg/kg, dose level Control) of 79.4 mg/dL, a TG (0 mg/kg, dose level Control) of 135 mg/dL and a TP (0 mg/kg, dose level Control) of 5.6 g/dL. The gamma-GTP (0 mg/kg, dose level Control) was 1 IU/L, the TERMINAL_BW (10 mg/kg, dose level Low) was 233.4 g and the Bas (10 mg/kg, dose level Low) was 0%. For the same compound, the Eos (10 mg/kg, dose level Low) was 0.2%, the Hb (10 mg/kg, dose level Low) was 13 g/dL and the Ht (10 mg/kg, dose level Low) was 39.7%. It also gave a Lym (10 mg/kg, dose level Low) of 90.2%, an MCH (10 mg/kg, dose level Low) of 19.9 pg and an MCHC (10 mg/kg, dose level Low) of 32.8%. The MCV (10 mg/kg, dose level Low) was 60.7 fL, the Mono (10 mg/kg, dose level Low) was 2.6% and the Neu (10 mg/kg, dose level Low) was 5.6%. It also gave a Plat (10 mg/kg, dose level Low) of 126.2 x10_4/uL, an RBC (10 mg/kg, dose level Low) of 653 x10_4/ul and a Ret (10 mg/kg, dose level Low) of 5.7%. The WBC (10 mg/kg, dose level Low) was 66.8 x10_2/uL, the KIDNEY_L (10 mg/kg, dose level Low) was 1 g and the KIDNEY_R (10 mg/kg, dose level Low) was 1 g. It also gave a KIDNEY_TOTAL (10 mg/kg, dose level Low) of 2.1 g, an LIVER (10 mg/kg, dose level Low) of 10.9 g and an A/G (10 mg/kg, dose level Low) of 1. It also gave an ALP (10 mg/kg, dose level Low) of 1481.4 IU/L, an ALT (10 mg/kg, dose level Low) of 33.4 IU/L and an AST (10 mg/kg, dose level Low) of 65.8 IU/L. For the same compound, the BUN (10 mg/kg, dose level Low) was 16.9 mg/dL, the CRE (10 mg/kg, dose level Low) was 0.1 mg/dL and the Ca (10 mg/kg, dose level Low) was 10.6 mg/dL. The Cl (10 mg/kg, dose level Low) was 102.9 meq/L, the DBIL (10 mg/kg, dose level Low) was 0.004 mg/dL and the GLC (10 mg/kg, dose level Low) was 198 mg/dL. For the same compound, the IP (10 mg/kg, dose level Low) was 7.2 mg/dL, the K (10 mg/kg, dose level Low) was 4.1 meq/L and the LDH (10 mg/kg, dose level Low) was 138.4 IU/L. It also gave a Na (10 mg/kg, dose level Low) of 141 meq/L, a PL (10 mg/kg, dose level Low) of 167.6 mg/dL and an RALB (10 mg/kg, dose level Low) of 2.9 g/dL. The TBIL (10 mg/kg, dose level Low) was 0.01 mg/dL, the TC (10 mg/kg, dose level Low) was 85.6 mg/dL and the TG (10 mg/kg, dose level Low) was 118.8 mg/dL. It also gave a TP (10 mg/kg, dose level Low) of 5.7 g/dL, a gamma-GTP (10 mg/kg, dose level Low) of 0.8 IU/L and a TERMINAL_BW (30 mg/kg, dose level Middle) of 227.7 g. For the same compound, the Bas (30 mg/kg, dose level Middle) was 0%, the Eos (30 mg/kg, dose level Middle) was 0% and the Hb (30 mg/kg, dose level Middle) was 11.8 g/dL. The Ht (30 mg/kg, dose level Middle) was 35.8%, the Lym (30 mg/kg, dose level Middle) was 80.2% and the MCH (30 mg/kg, dose level Middle) was 20.8 pg. The MCHC (30 mg/kg, dose level Middle) was 32.9%, the MCV (30 mg/kg, dose level Middle) was 63.3 fL and the Mono (30 mg/kg, dose level Middle) was 3.2%. For the same compound, the Neu (30 mg/kg, dose level Middle) was 15.4%, the Plat (30 mg/kg, dose level Middle) was 127.5 x10_4/uL and the RBC (30 mg/kg, dose level Middle) was 566 x10_4/ul. For the same compound, the Ret (30 mg/kg, dose level Middle) was 4.9%, the WBC (30 mg/kg, dose level Middle) was 34.5 x10_2/uL and the KIDNEY_L (30 mg/kg, dose level Middle) was 1 g. The KIDNEY_R (30 mg/kg, dose level Middle) was 1 g, the KIDNEY_TOTAL (30 mg/kg, dose level Middle) was 2 g and the LIVER (30 mg/kg, dose level Middle) was 9.9 g. It also gave an A/G (30 mg/kg, dose level Middle) of 0.9, an ALP (30 mg/kg, dose level Middle) of 1270.8 IU/L and an ALT (30 mg/kg, dose level Middle) of 35.2 IU/L. It also gave an AST (30 mg/kg, dose level Middle) of 70 IU/L, a BUN (30 mg/kg, dose level Middle) of 17.6 mg/dL and a CRE (30 mg/kg, dose level Middle) of 0.1 mg/dL. It also gave a Ca (30 mg/kg, dose level Middle) of 10.4 mg/dL, a Cl (30 mg/kg, dose level Middle) of 103.6 meq/L and a DBIL (30 mg/kg, dose level Middle) of 0.01 mg/dL. For the same compound, the GLC (30 mg/kg, dose level Middle) was 196 mg/dL, the IP (30 mg/kg, dose level Middle) was 8.3 mg/dL and the K (30 mg/kg, dose level Middle) was 3.9 meq/L. For the same compound, the LDH (30 mg/kg, dose level Middle) was 151 IU/L, the Na (30 mg/kg, dose level Middle) was 141.8 meq/L and the PL (30 mg/kg, dose level Middle) was 150.4 mg/dL. For the same compound, the RALB (30 mg/kg, dose level Middle) was 2.7 g/dL, the TBIL (30 mg/kg, dose level Middle) was 0.022 mg/dL and the TC (30 mg/kg, dose level Middle) was 82.6 mg/dL. The TG (30 mg/kg, dose level Middle) was 51.7 mg/dL, the TP (30 mg/kg, dose level Middle) was 5.6 g/dL and the gamma-GTP (30 mg/kg, dose level Middle) was 1 IU/L. The TERMINAL_BW (100 mg/kg, dose level High) was 207.9 g, the Bas (100 mg/kg, dose level High) was 0% and the Eos (100 mg/kg, dose level High) was 0%. For the same compound, the Hb (100 mg/kg, dose level High) was 13.8 g/dL, the Ht (100 mg/kg, dose level High) was 41.1% and the Lym (100 mg/kg, dose level High) was 14.2%. The MCH (100 mg/kg, dose level High) was 20.5 pg, the MCHC (100 mg/kg, dose level High) was 33.5% and the MCV (100 mg/kg, dose level High) was 61.1 fL. The Mono (100 mg/kg, dose level High) was 3.2%, the Neu (100 mg/kg, dose level High) was 82% and the Plat (100 mg/kg, dose level High) was 117.5 x10_4/uL. The RBC (100 mg/kg, dose level High) was 673.6 x10_4/ul, the Ret (100 mg/kg, dose level High) was 4.4% and the WBC (100 mg/kg, dose level High) was 13.1 x10_2/uL. For the same compound, the KIDNEY_L (100 mg/kg, dose level High) was 1 g, the KIDNEY_R (100 mg/kg, dose level High) was 1 g and the KIDNEY_TOTAL (100 mg/kg, dose level High) was 1.9 g. It also gave an LIVER (100 mg/kg, dose level High) of 9.7 g, an A/G (100 mg/kg, dose level High) of 1 and an ALP (100 mg/kg, dose level High) of 1181 IU/L. For the same compound, the ALT (100 mg/kg, dose level High) was 28.6 IU/L, the AST (100 mg/kg, dose level High) was 113 IU/L and the BUN (100 mg/kg, dose level High) was 16.2 mg/dL. It also gave a CRE (100 mg/kg, dose level High) of 0.1 mg/dL, a Ca (100 mg/kg, dose level High) of 10.3 mg/dL and a Cl (100 mg/kg, dose level High) of 101.6 meq/L. For the same compound, the DBIL (100 mg/kg, dose level High) was 0.01 mg/dL, the GLC (100 mg/kg, dose level High) was 197.8 mg/dL and the IP (100 mg/kg, dose level High) was 8.2 mg/dL. For the same compound, the K (100 mg/kg, dose level High) was 3.6 meq/L, the LDH (100 mg/kg, dose level High) was 166.4 IU/L and the Na (100 mg/kg, dose level High) was 142.3 meq/L. It also gave a PL (100 mg/kg, dose level High) of 150.4 mg/dL, an RALB (100 mg/kg, dose level High) of 2.7 g/dL and a TBIL (100 mg/kg, dose level High) of 0.016 mg/dL. It also gave a TC (100 mg/kg, dose level High) of 75.8 mg/dL, a TG (100 mg/kg, dose level High) of 59.3 mg/dL and a TP (100 mg/kg, dose level High) of 5.4 g/dL. For the same compound, the gamma-GTP (100 mg/kg, dose level High) was 0.7 IU/L.
